Data reported in paper PMC8566951, “Antifungal Activity of ToAP2D Peptide Against Sporothrix globosa” (Frontiers in Bioengineering and Biotechnology, 2021).
No end group written: not given here.

Key:
S. globosa [1] = assay: S. globosa footpad infection in mice, skin lesion area; format: in vivo, BALB/c mice; conditions: itraconazole gavage 60 mg/kg daily from Day 10, mean ± SD, n = 6
Method: The animal protocol was approved by the Institutional Ethics Committee for Animal Use in Research, and our animal care followed Animal Care guidelines of the Jilin University. Mice were randomly divided into study group (n = 51) and the healthy control (HC) group (n = 6). Mice in the study group were injected with 0.05 ml S. globosa suspension (1 × 10^8 cfu/ml) on their footpads after alcohol cotton ball sterilization. The condition of the skin was monitored daily. […] After that, CO2 lattice laser was used to promote ToAP2D absorption, and the mice of the study group were further divided into infection group (n = 12), laser group (n = 12), laser + ToAP2D group (n = 12), and itraconazole group (n = 12), and the antifungal treatments were given subsequently.
In the laser group, the injection feet were subjected to CO2 lattice laser 10,600 nm irradiation at room temperature with an irradiation energy density of 120 mJ/mm^2. The laser scanning area was 15 mm × 15 mm with a lattice density of 0.3 mm and 25.0% coverage rate. The laser treatment was administered every […] on Day 10, 14, 18, and 22. In the laser + ToAP2D group, mice were subjected to CO2 lattice laser irradiation with the same parameters in the laser group to assist the absorption of ToAP2D. Almost immediately after laser irradiation, the antibacterial peptide ToAP2D (4 mg/ml, diluted with 0.9% normal saline) was repeatedly rolled onto the laser-irradiated part of the footpad, until it was completely absorbed every day. In the itraconazole group, mice were gavaged with itraconazole at a dose of 60 mg/kg daily. The size of the footpads of mice was measured every 3 days and analyzed using Photoshop. On Day 18 and 26, six mice in each group were sacrificed, and their feet tissues were collected for further skin histology and immunohistochemistry studies.

Candida albicans = conditions: ref Guilhelmelli et al., 2016; cited from earlier work
Description: (§1) As the biological characteristics of S. globosa are very similar to C. albicans, we then use ToAP2structure as a template, through reasonable molecular design and modification, to study the inhibitory e ...

[2] = ref Guilhelmelli et al., 2016; cited from earlier work
Description: as §1

S. globosa [3] = assay: Inhibition zone test (paper disk); format: cell-based, Sporothrix globosa; conditions: 6 µL on 5 mm paper disk, 37°C, 72 h, repeated three times, 5.00 = disk diameter
Method: S. globosa was collected from clinical patients diagnosed with cutaneous sporotrichosis at our hospital. All strains were identified as S. globosa using mycelial-to-yeast phase conversion culture and molecular identification methods. All isolates were grown on Sabouraud’s dextrose agar. After 7 days of culture, the fungal colonies were transferred to brainheart infusion broth and incubated in a rotary shaker (150 rpm/min) at 37°C for another 7 days. S. globosa was centrifuged and resuspended in PBS and diluted to 1.0 × 10^8 cfu/ml.
The antifungal activity of ToAP2A, ToAP2C, and ToAP2D against S. globosa was analyzed using the inhibition zone test. S. globosa was collected and diluted to 1.0 × 10^8 cfu/ml with a hemocytometer. We then evenly inoculated on brainheart infusion broth agar plates with 50 µL aliquots of the dilution. Paper disks with 5 mm diameter were pasted on the surface of the solid culture medium after high-pressure sterilization. ToAP2A, ToAP2C, and ToAP2D (4/2/1 mg/ml) and the control sample (physiological saline with a concentration of 0.9%) were dripped onto the filter paper with 6 µL, respectively, and cultured in 37°C for 72 h to observe whether there is a zone of inhibition. The diameter of the inhibition zone was measured and recorded with a vernier caliper. The above steps were repeated three times to calculate the average value and standard deviation of the inhibition zone diameter of each sample.

[4] = Serum stability by inhibition zone test; format: in vitro ADME; conditions: human serum diluted 1:1 with 0.9% normal saline, ToAP2D 4 mg/ml, 10 h at 37°C, read-out inhibition zone after 24 h
Method: The stability of ToAP2D in human serum was analyzed using the inhibition zone test. 5 ml of healthy human blood (from the physical examination center of our hospital) was extracted using a sterile syringe, stored at room temperature for 1 h, and then stored at 4°C overnight. After 24 h, the blood was centrifuged at 1,000 rpm/min for 10 min, and 50 µL of serum in the supernatant was gently sucked out with a pipette gun. The serum was diluted with 50 µL of 0.9% normal saline, and then, the antimicrobial peptide ToAP2D was dissolved in the diluted serum.
To determine the stability of ToAP2D in human serum, ToAP2D (final concentration 4 mg/ml) was mixed with the diluted serum for 0, 0.5, 1, 2, 4, 6, 8, and 10 h at 37°C, respectively. In brief, S. globosa was inoculated on brainheart infusion broth agar plates, 5.0 mm paper disks were placed on top, and 6 µL aliquots of the serumpeptide mixture were added to the paper disks at each incubation time point. After 24 h of incubation, the inhibitory zones against S. globosa were measured and recorded.

[5] = Acute toxicity, HE staining of major organs; format: in vivo; conditions: BALB/c mice, 60 mg/kg tail vein, organs after 24 h, n = 5
Method: To examine their toxicity, an in vivo animal study was performed. The 10 healthy BALB/c mice were randomly divided into ToAP2D group (n = 5) and the control group (n = 5). The mice in the ToAP2D group were injected with ToAP2D through the tail vein at a dose of 60 mg/kg, and the control group mice were injected with the same volume of normal saline. After 24 h, the major organs (e.g., brain, heart, liver, and kidney) of the mice were excised and fixed in 10% buffered formalin for 1 day. The tissues were then embedded in paraffin and sectioned for hematoxylin and eosin (HE) staining.

S. globosa [6] = assay: Minimal inhibitory concentration, microdilution assay; format: cell-based, Sporothrix globosa; conditions: brainheart infusion broth, 1 × 10^8 cfu/ml, 37°C, 7 days, at least three experiments
Method: The minimal inhibitory concentration (MIC) of ToAP2D against S. globosa was determined using the microdilution assay. In brief, twofold serial dilutions of ToAP2D were prepared in 96-well polystyrene microplates to a final volume of 100 µL. Final concentrations of ToAP2D ranged from 5 mg/ml to 0.62 μg/ml. In each plate, wells were included without peptide as control. Then, 100 µL of the liquid medium (brainheart infusion broth) was added to each well with a final concentration of 1 × 10^8 cfu/ml for S. globosa. The plates were incubated at 37°C for 7 days. In addition, 20 µL of culture from each well was inoculated on the brainheart solid medium and cultured in a constant temperature incubator at 37°C for 7 days to observe the growth of colonies. […] The experiments were performed at least three times on separate dates.

With CCC(C)n1ncn(-c2ccc(N3CCN(c4ccc(OCC5COC(Cn6cncn6)(c6ccc(Cl)cc6Cl)O5)cc4)CC3)cc2)c1=O (stereo not shown) [Itraconazole, itraconazole] the “Skin lesion area (mm^2)” value (S. globosa [1]; Day14) was 27.82 ± 2.84 ^** mm^2, the “Skin lesion area (mm^2)” value (S. globosa [1]; Day18) was 21.47 ± 0.92 ^*** mm^2 and the “Skin lesion area (mm^2)” value (S. globosa [1]; Day22) was 14.94 ± 2.93 ^** mm^2. The “Skin lesion area (mm^2)” value (S. globosa [1]; Day26) was 11.81 ± 0.85 mm^2.
In the case of FFGTLFKLGSKLIPGVMKLFSKKKER [ToAP2], the “growth of Candida albicans” value (Candida albicans) is given as “could inhibit the growth”, the cytotoxic activity [2] is given as “low cytotoxic” and the hemolytic activity [2] is given as “low hemolytic”.
With GAKLIPGVMKLFRKK [ToAP2C] the “Inhibition zone (mm) mean ± standard deviation (SD)” value (S. globosa [3]; 1 mg/ml) was 5.00 ± 0.00 mm, the “Inhibition zone (mm) mean ± standard deviation (SD)” value (S. globosa [3]; 2 mg/ml) was 6.37 ± 0.27 mm and the “Inhibition zone (mm) mean ± standard deviation (SD)” value (S. globosa [3]; 4 mg/ml) was 8.12 ± 0.33 mm.
With GDKLIPGVMKLFRKK [ToAP2D] the “antifungal activity against S. globosa after incubation in serum, compared to the original drug” value [4] was > 90%, the “acute toxicity (HE staining of main organs)” value [5] was “no acute toxicity” and the “Inhibition zone (mm) mean ± standard deviation (SD)” value (S. globosa [3]; 1 mg/ml) was 5.00 ± 0.00 mm. For the same molecule, the “Inhibition zone (mm) mean ± standard deviation (SD)” value (S. globosa [3]; 2 mg/ml) was 6.86 ± 0.25 mm, the “Inhibition zone (mm) mean ± standard deviation (SD)” value (S. globosa [3]; 4 mg/ml) was 11.56 ± 0.36 mm and the “minimal inhibitory concentration (MIC)” value (S. globosa [6]) was 156.25 µg/mL.
With GSKLIPGVMKLFSKK [ToAP2A] the “Inhibition zone (mm) mean ± standard deviation (SD)” value (S. globosa [3]; 1 mg/ml) was 5.00 ± 0.00 mm, the “Inhibition zone (mm) mean ± standard deviation (SD)” value (S. globosa [3]; 2 mg/ml) was 6.59 ± 0.34 mm and the “Inhibition zone (mm) mean ± standard deviation (SD)” value (S. globosa [3]; 4 mg/ml) was 9.23 ± 0.34 mm.
